Experimental data as given in patent publication US12404232B2, “Compounds and compositions for intracellular delivery of therapeutic agents” (ModernaTX, Inc., priority 2015, dated 2025).

How the values were obtained:
[1] = system: rats; assay: Cytokine induction (IP-10) in rats after intravenous administration; assay type: in vivo; settings: rat, 6 hours after administration of hEPO nanoparticle compositions, 2.0 mpk
Method: (§1) The expression of hEPO and cytokine induction in rats intravenously administered a nanoparticle composition at a dose of 2.0 mpk was measured at 6 h.
(§2) Table 19 summarizes the hEPO expression, IP-10 induction, liver and spleen levels, and alanine aminotransferase (ALT) and aspartate aminotransferase (AST) measured upon intravenous administration of formulations including Compounds 48, 49, and 50 to rat at 0.2 and 2 mpk and hEPO mRNA. hEPO concentrations were measured 6 hours after administration, while cytokine induction and liver and spleen levels were measured 48 hours after administration. hEPO and IP-10 concentrations are presented in pg/ml, while liver levels are provided in ng/g. ALT and AST levels are presented in international units.

[2] = system: rats; assay: hEPO expression in rats after intravenous administration; assay type: in vivo, rat; settings: for hEPO expression: rat
Method: as §1
(§3) The expression of hEPO in rats intravenously administered a nanoparticle composition at a dose of 0.2 mpk or 2.0 mpk was measured at 6 hours. Table 16 summarize the ratio of hEPO expression levels using various nanoparticle compositions as compared to the hEPO expression level using MC3 formulation and the lipid levels in the liver measured 48 hours after administration, as described above. Tables 17 and 18 summarize the lipid levels in the liver and spleen measured 48 hours after administration of Compounds 28, 33, 53, and 54. Liver and spleen levels represent the average values calculated for 3 rats in each group. As is shown in Tables 17 and 18, less than 10% of Compounds 28, 33, 53, and 54 remained in the liver after 48 hours, while greater than 60% of MC3 remained.
as §2
(§4) The expression of hEPO induced by intravenous administration to rats of nanoparticle compositions at various doses was measured at 2, 4, 6, 8, 24, and 48 hour time points. FIGS. 3-6 respectively summarize the hEPO expression measured upon intravenous administration of formulations including Compounds 26, 18, 25, and MC3 to rat at various doses. The lipid levels of Compound 26 in the liver after 48 hours were about 19%.
The expression of hEPO and lipid levels in the liver and spleen in rats intravenously administered a nanoparticle composition at a dose of 0.2 mpk was measured at various timepoints. Compounds 18 and 25 were selected for comparison with MC3. Lipids were formulated according to the standard MC3 formulation described above. Rats were administered intravenously a single 0.2 mpk dose and expression monitored at 0.25, 0.5, 1, 2, 4, 8, 24, and 48 hours after administration. […]

[3] = system: rats; assay: Residual lipid levels in liver and spleen of rats (UPLC-MS quantification); assay type: in vivo, rat; settings: for Lipid level in liver / Lipid level in spleen: rat, i.v., 0.2 mpk; for % Lipid Remaining in liver, 48 h* 2 mpk: assuming 300 g rat and 15 g liver
Method: At 48 h liver tissue was harvested for lipid quantification. To pre-weighed tissues, Milli-Q water was added (900 μL water per 100 mg tissue). Tissues were homogenized using an Omni probe homogenizer until uniform. 50 μL of samples and matrix calibration standards were aliquoted into a 96-well plate. 50 μL of blank matrix for matrix blanks and control blanks were aliquoted. 400 μL IS spiking solution were manually added to all samples except matrix blanks. 400 μL of 50:50 ACN:IPA were manually added to matrix blanks. The plate was covered and the samples vortexed and centrifuged for 5 minutes at >3000 rpm. 200 μL of the samples were transferred into a clean 96-well plate for analysis. Samples were analyzed on a Waters Acquity UPLC using a Higgins Analytical Clipeus C8 column ([…], 30×2.1 mm) and a gradient of either 70-95% or 60-95% (Mobile Phase A: 5 mM ammonium formate in 50:50:1 H2O:MeOH:formic acid; Mobile Phase B: 5 mM ammonium formate in 100:1 MeOH:formic acid) over 1.3 min at 1.2 mL/min (column temperature 55° C.). Detection was based on electrospray ionization (ESI) in positive mode using a Sciex API5500 Mass Spectrometer.
as §3, §2, §4
The expression of hEPO and lipid levels in the liver and spleen in rats intravenously administered a nanoparticle composition at a dose of 0.2 mpk was measured at various timepoints. Compounds 18 and 25 were selected for comparison with MC3. Lipids were formulated according to the standard MC3 formulation described above. Rats were administered intravenously a single 0.2 mpk dose and expression monitored at 0.25, 0.5, 1, 2, 4, 8, 24, and 48 hours after administration.

[4] = system: mice; assay: Luc expression (total flux) after intramuscular administration; assay type: in vivo; settings: 6 hours after intramuscular administration, Luc mRNA and H10 mRNA

Compound	IP-10 [1]	hEPO expression ([2]; i.v., 0.2 mpk, 0.25 h)	hEPO expression ([2]; i.v., 0.2 mpk, 0.5 h)	hEPO expression ([2]; i.v., 0.2 mpk, 1 h)	hEPO expression ([2]; i.v., 0.2 mpk, 2 h)	hEPO expression ([2]; i.v., 0.2 mpk, 4 h)	hEPO expression ([2]; i.v., 0.2 mpk, 8 h)	hEPO expression ([2]; i.v., 0.2 mpk, 24 h)	hEPO expression ([2]; i.v., 0.2 mpk, 48 h)	% Lipid Remaining in liver, 48 h* 2 mpk ([3]; rats, 48 h)	Total flux (p/s) 0.01 mpk Dose [4]	Total flux (p/s) 0.001 mpk Dose [4]	also measured
CCCCCCCCCOC(=O)CCCCCCCN(CCO)CCCCCCCC(=O)OC(CCCCCCCC)CCCCCCCC [Compound 18, Heptadecan-9-yl 8-((2-hydroxyethyl)(8-(nonyloxy)-8-oxooctyl)amino)octanoate]	517.3 pg/mL	20227 pg/mL	20743 pg/mL	194353 pg/mL	238107 pg/mL	514807 pg/mL	915320 pg/mL	412051 pg/mL	52361 pg/mL	0.018%	8.84E+07 p/s		Lipid level in liver ([3]; 0.25 h): 5374 ng/g; Lipid level in spleen ([3]; 0.25 h): 1230 ng/g; Lipid level in liver ([3]; 0.5 h): 6023 ng/g; Lipid level in spleen ([3]; 0.5 h): 2017 ng/g; Lipid level in liver ([3]; 1 h): 6053 ng/g; Lipid level in spleen ([3]; 1 h): 3213 ng/g; Lipid level in liver ([3]; 2 h): 2037 ng/g; Lipid level in spleen ([3]; 2 h): 3070 ng/g; Lipid level in liver ([3]; 4 h): 839 ng/g; Lipid level in spleen ([3]; 4 h): 3770 ng/g; Lipid level in liver ([3]; 8 h): 296 ng/g; Lipid level in spleen ([3]; 8 h): 1345 ng/g; Lipid level in liver ([3]; 24 h): 5 ng/g; Lipid level in spleen ([3]; 24 h): 271 ng/g; Lipid level in liver ([3]; 48 h): 5374 ng/g; Lipid level in spleen ([3]; 48 h): 92 ng/g
CCCCCCCCCCCOC(=O)CCCCCN(CCO)CCCCCCCC(=O)OC(CCCCCCCC)CCCCCCCC [Compound 25, Heptadecan-9-yl 8-((2-hydroxyethyl)(6-oxo-6-(undecyloxy)hexyl)amino)octanoate]	533.5 pg/mL	0 pg/mL	19553 pg/mL	434299 pg/mL	2042807 pg/mL	3176560 pg/mL	2631633 pg/mL	869374 pg/mL	103089 pg/mL	1.32%	9.96E+07 p/s	3.53E+06 p/s	
CCCCCC=CCC=CCCCCCCCCC(CCCCCCCCC=CCC=CCCCCC)OC(=O)CCCN(C)C (stereo not shown) [MC3, heptatriaconta-6,9,28,31-tetraen-19-yl 4-(dimethylamino)butanoate, reference compound]	688.3 pg/mL	0 pg/mL	42457 pg/mL	93720 pg/mL	524093 pg/mL	601307 pg/mL	1536833 pg/mL	703619 pg/mL	64687 pg/mL	87%	3.68E+07 p/s	2.76E+06 p/s	hEPO expression ([2]; 6 h, 2 mpk, intravenous): 1.33e+07 pg/mL; Lipid/MC3 hEPO conc. ratio 0.2 mpk ([2]; rats, intravenous, 0.2 mpk, 6 hours): 1; Lipid/MC3 hEPO conc. ratio 2 mpk ([2]; rats, intravenous, 2 mpk, 6 hours): 1; remained in the liver after 48 hours ([3]; rats, intravenous, 48 hours): greater than 60%
